One assay deals with RPE-MBC cells. As to the kind of experiment: IC50 in RPE-MBC cells (Table 1). Type of assay: cell-based, human. As to conditions: Homo sapiens; RPE-MBC, treatment 72 h; read-out: IC50. The protocol:
Retinal pigment epithelial cells transformed by ectopic MYC and Bcl-2 expression (RPE-MBC cells) have been described previously (e.g., Goga et al., 2007, Nat. Med., 13 (7):820-827) and were cultured in DMEM supplemented with 5% fetal bovine serum in a humidified incubator that was maintained at 5% CO2. For screening for bioactive fractions, cells were cultured in 96-well plates, and exposed to crude extracts, partially purified fractions or pure compounds at the concentrations indicated in the figure legends. Exposure was for 24 or 48 hours before analysis of cells for either an arrest in mitosis using an inverted microscope or for a change in DNA content after 4′,6′-diamidino-2-phenylindole (DAPI) staining by fluorescence microscopy.
The RPE series were derived from human retinal pigment epithelium and then stably transfected with a hTERT expression construct for immortalization. The resulting cell line was then engineered to overexpress the MYC and BCL2 oncogenes, generating the RPE MBC cell line. This cell line mimics cancer cells that overexpress MYC and Bcl2, and readily forms viable polyploid cells when cytokinesis is prevented.
(§1) Cells were split, plated in appropriate culture media and allowed to adhere. After 18 hours, corynoline and acetylcorynoline were added to a cell line selected from below. At 72 h or 96 h, MTT was added and at 75 h or 99 h, the A570 nm was recorded. The concentration ranged from 0.02 μM to 40 μM.
(§2) The effect of the compounds chelidonine and protopine on cell division was assessed similarly to corynoline and acetylcorynoline above. As described in Example 6 above, as cells enter and become arrested in mitosis, they detach from the plate surface and appear as rounded cells with a smooth surface membrane. RPE-MBC cells (ectopically expressing oncogenes MYC and Bcl2) were treated with DMSO, chelidonine and protopine, and compared against controls Michael's ketone (MK) and taxol.

Assay [1] relates to all tested cell lines (RPE, Rat1A and human cancer cell lines). As to the kind of experiment: MTT assay, IC50 across all of the cell lines tested. It is filed as cell-based.
The subject of a further assay is human cancer cell lines. As to the kind of experiment: MTT assay, human cancer cell lines. Type of assay: cell-based. The note with it: with the exception of T98G (FIG. 13). The protocol:
Cells were split, plated in appropriate culture media and allowed to adhere. After 18 hours, corynoline and acetylcorynoline were added to a cell line selected from below. At 72 h or 96 h, MTT was added and at 75 h or 99 h, the A570 nm was recorded. The concentration ranged from 0.02 μM to 40 μM. Taxol was used as a positive control, which has a known IC50 value of less than 0.02 μM in all tested cell lines.
The following human cancer cell lines, representing a breadth of cancer subtypes, were used in these studies: Hela, C32, NCI-H23, HCT116 p53-/-, HCT116 wild type, MDA-MB-175IV, MDA-MB-231, MDA-MB-435, MCF-7, A431, H460, TUWI, CaoV-3, T98G, and HTB135.

The subject of a further assay is aurora-B kinase. As to the kind of experiment: Phosphorylation of Histone 3 at Ser10 as surrogate of aurora-B kinase activity. Type of assay: cell-based. How it is done: Cells were cultured on coverslips in a 6-well plate, fixed with 4% paraformaldehyde and then permeabilized with 0.3% Triton X-100 in PBS. Primary antibody was detected with Texas-Red-conjugated secondary antibodies that were purchased from Jackson ImmunoResearch. After immunostaining, cells were mounted on microscope slides with 4′,6′-diamidino-2-phenylindole (DAPI)-containing Vectashield mounting solution (Vector Laboratories) for detection of fluorescence with an EVOS FL fluorescence microscope (ThermoFisher).

For assay [2], the system named is RPE MBC cells. In words: Mitotic kinetochore analysis with CREST antibody. It is filed as cell-based, human. The protocol:
Following treatment with acetylcorynoline, RPE MBC cells were prepared for immunofluorescence analysis with CREST serum (staining shown in FIG. 6 and FIG. 7 in red).

The subject of assay [3] is RPE MBC cells. As to the kind of experiment: Spindle pole assembly by β-tubulin / Histone H3ser10P immunofluorescence. It is filed as cell-based, human. The protocol:
Microtubule assembly, specifically spindle pole assembly, was altered by treatment with acetylcorynoline. RPE MBC cells were treated with acetylcorynoline and Histone H3 Serine 10 Phosphorylation (Histone H3ser10p, shown in FIG. 4 and FIG. 5 in red), β-tubulin (green) and DNA (blue) was analyzed by immunofluorescence microscopy. Histone H3ser10P was used to determine the cells that were in early mitosis (e.g., prometaphase or metaphase). β-tubulin was used to examine microtubule localization and spindle assembly within the cells.
Similarly to corynoline and acetylcorynoline above, it was determined that microtubule assembly, specifically spindle pole assembly, was altered by treatment with chelidonine.

The subject of the next assay is IMR 90 cells. In words: IC50 in IMR 90 cells (Table 2). Type of assay: cell-based. As to conditions: Homo sapiens, IMR-90, 72 h, IMR 90, treatment 72 h; read-out: IC50. The protocol: as §1, §2
Another assay relates to cells. In words: Progression through mitosis by time-lapse microscopy. Type of assay: cell-based. The text has this: Time lapse microscopy was used to compare progression through mitosis for cells treated with acetylcorynoline and the DMSO control group, beginning at prophase.
Assay [4] relates to RPE cell lines (RPE NEO, RPE MBH, RPE MBC, RPE MA, RPE MP, RPE MI, RPE MYC Nick). In words: MTT assay, RPE cell lines expressing oncogenes. It is filed as cell-based, human. As to conditions: RPE cell lines compared with RPE NEO control (FIG. 11).
A further assay has as its system RPE-Neo cells. As to the kind of experiment: IC50 in RPE-Neo cells (Table 2). Type of assay: cell-based, human. The note with it: Homo sapiens, 72 h, RPE-Neo, treatment 72 h; read-out: IC50. How it is done:
as §1
(§3) The following RPE cell lines were used in these studies: RPE NEO, RPE MBH, RPE MBC, RPE MA, RPE MP, RPE MI, and RPE MYC Nick. This RPE series were derived from human retinal pigment epithelium and then stably transfected with an hTERT expression construct for immortalization. The resulting cell line was then engineered to overexpress the MYC oncogene (RPE-MYC) or a Neomycin selection marker gene (RPE-NEO). In RPE-MYC cells, a variety of other oncogenes such as Myr-AKT, BCL2, ID1 and PI3K^E45k were further introduced individually to generate the cell lines RPE MA, RPE MBC, RPE MI, RPE MP, respectively. As a control, H2BGFP was introduced into RPE-MYC cells to generate RPE MBH.
as §2

For another assay, the system named is RPE-MBH cells. In words: IC50 in RPE-MBH cells (Table 1). Type of assay: cell-based, human. The note with it: Homo sapiens, 72 h, RPE-MBH, treatment 72 h; read-out: IC50. The protocol: as §1, §3, §2

Entries after “also recorded” stand apart in the source; their conditions may differ. Like-named read-outs stand apart in the source and are kept apart here.

In the case of `CC(=O)O[C@H]1Cc2cc3c(cc2[C@H]2N(C)Cc4c(ccc5c4OCO5)[C@@]12C)OCO3` [Acetylcorynoline, (5bR,6S,12bR)-5b,6,7,12b,13,14-Hexahydro-5b,13-dimethyl-[1,3]benzodioxolo[5,6-c]-1,3-dioxolo[4,5-i]phenanthridin-6-ol 6-acetate], the IC50 in the assay with RPE-MBC cells was 9.94 µM; in assay [1] (Homo sapiens, across all of the cell lines tested (FIG. 9), MTT at 72 h or 96 h, read-out: IC50), 1 to 31 µM; in [1] (oncogene-expressing RPE cell lines and human cell lines (FIG. 2, FIG. 3), read-out: IC50, majority of values), 1 to 31 µM; in the assay on IMR 90 cells, > 40 µM; in the assay on RPE-Neo cells, > 40 µM; in the assay on RPE-MBH cells, 12.6 µM. Also, the “IC50 compared with the other compound” value in the assay on human cancer cell lines is reported as “higher than those for corynoline”. Moreover, in the assay with aurora-B kinase, the “phosphorylation of Histone 3 at Ser10” value is “not affected”. For the same compound, in the assay on RPE MBC cells [2], the “kinetochore arrangement (CREST staining)” value is “kinetochore arrangement was disturbed”. The “cells in prometaphase (Histone H3ser10P staining)” value in the assay on RPE MBC cells [3] (6 hours of treatment) is reported as “Numerous mitotic cells accumulated in prometaphase; also recorded: high numbers of cells arresting in prometaphase”. The “spindle formation (β-tubulin staining)” value was “monopolar spindles were formed; also recorded: abnormal spindle polarization in mitosis” with RPE MBC cells [3] (6 hours of treatment) and “multipolar spindles were formed; also recorded: multipolar spindle formation in mitosis” with RPE MBC cells [3] (24 hours of treatment). Besides, the cytofission entry in the assay with cells (time lapse) is reported as “prevented cytofission”. Besides, in the assay on cells (time lapse), the initiation of cytokinesis entry is “does not affect the initiation of cytokinesis”. For the same compound, the “time spent in early mitosis compared to a control cell” value in the assay with cells (time lapse beginning at prophase) is given as “three-times longer”. In assay [4], the “change of IC50 after overexpression of oncogenic factors” value is “all declined compared with the RPE NEO control, with the exception of the RPE MA cell line”.

The IC50 is the concentration that gives 50% inhibition.

Values taken from US20240139162A1, “Benzophenanthridine Alkaloids and Their Methods of Use” (Chengdu Anticancer Bioscience, LTD., priority 2019, published 2024).
